Assay results reported in patent publication US20080090734A1, “DRUG SCREENING AND TARGET IDENTIFICATION USING SPR IMAGING OF TARGET PROTEIN ARRAYS” (The Trustees of California State University, priority 2006, published 2008).

Test system: A. baumannii clinical isolate LAC 01
Experiment: Antibiotic susceptibility profile
Assay type: cell-based, Acinetobacter baumannii
Parameters: key: Resistance; Intermediate; Susceptible
Text: (§1) We obtained over thirty clinical isolates of A. baumannii from nosocomial infections in New York City and Los Angeles. […] Only antibiotics with breakpoints for A. baumannii were used. […] Isolates LA 01 to 20 were acquired from Los Angels County while NY-A to NY-H were obtained from New York City.
(§2) Antibiotic susceptibility profiles of clinical isolates of A. baumannii and reference strains. R, I, and S denote Resistance, Intermediate and Susceptible, respectively. Genetic Profiling of Clinical Isolates of A. baumannii

SMILES | Antibiotic susceptibility
CN(C)[C@@H]1C(O)=C(C(N)=O)C(=O)[C@@]2(O)C(O)=C3C(=O)c4c(O)cccc4[C@@](C)(O)[C@H]3C[C@@H]12 [TET, Tetracycline] | R

Test system: A. baumannii clinical isolate LAC 02
Experiment: Antibiotic susceptibility profile
Assay type: cell-based, Acinetobacter baumannii
Parameters: key: Resistance; Intermediate; Susceptible
Text: as §1, §2

SMILES | Antibiotic susceptibility
CN(C)[C@@H]1C(O)=C(C(N)=O)C(=O)[C@@]2(O)C(O)=C3C(=O)c4c(O)cccc4[C@@](C)(O)[C@H]3C[C@@H]12 [TET, Tetracycline] | R

Test system: A. baumannii clinical isolate LAC 03
Experiment: Antibiotic susceptibility profile
Assay type: cell-based, Acinetobacter baumannii
Parameters: key: Resistance; Intermediate; Susceptible
Text: as §1, §2

SMILES | Antibiotic susceptibility
CN(C)[C@@H]1C(O)=C(C(N)=O)C(=O)[C@@]2(O)C(O)=C3C(=O)c4c(O)cccc4[C@@](C)(O)[C@H]3C[C@@H]12 [TET, Tetracycline] | R

Test system: A. baumannii clinical isolate LAC 04
Experiment: Antibiotic susceptibility profile
Assay type: cell-based, Acinetobacter baumannii
Parameters: key: Resistance; Intermediate; Susceptible
Text: as §1, §2

SMILES | Antibiotic susceptibility
CN(C)[C@@H]1C(O)=C(C(N)=O)C(=O)[C@@]2(O)C(O)=C3C(=O)c4c(O)cccc4[C@@](C)(O)[C@H]3C[C@@H]12 [TET, Tetracycline] | I

Test system: A. baumannii clinical isolate LAC 05
Experiment: Antibiotic susceptibility profile
Assay type: cell-based, Acinetobacter baumannii
Parameters: key: Resistance; Intermediate; Susceptible
Text: as §1, §2

SMILES | Antibiotic susceptibility
CN(C)[C@@H]1C(O)=C(C(N)=O)C(=O)[C@@]2(O)C(O)=C3C(=O)c4c(O)cccc4[C@@](C)(O)[C@H]3C[C@@H]12 [TET, Tetracycline] | R

Test system: A. baumannii clinical isolate LAC 06
Experiment: Antibiotic susceptibility profile
Assay type: cell-based, Acinetobacter baumannii
Parameters: key: Resistance; Intermediate; Susceptible
Text: as §1, §2

SMILES | Antibiotic susceptibility
CN(C)[C@@H]1C(O)=C(C(N)=O)C(=O)[C@@]2(O)C(O)=C3C(=O)c4c(O)cccc4[C@@](C)(O)[C@H]3C[C@@H]12 [TET, Tetracycline] | R

Test system: A. baumannii clinical isolate LAC 07
Experiment: Antibiotic susceptibility profile
Assay type: cell-based, Acinetobacter baumannii
Parameters: key: Resistance; Intermediate; Susceptible
Text: as §1, §2

SMILES | Antibiotic susceptibility
CN(C)[C@@H]1C(O)=C(C(N)=O)C(=O)[C@@]2(O)C(O)=C3C(=O)c4c(O)cccc4[C@@](C)(O)[C@H]3C[C@@H]12 [TET, Tetracycline] | R

Test system: A. baumannii clinical isolate LAC 08
Experiment: Antibiotic susceptibility profile
Assay type: cell-based, Acinetobacter baumannii
Parameters: key: Resistance; Intermediate; Susceptible
Text: as §1, §2

SMILES | Antibiotic susceptibility
CN(C)[C@@H]1C(O)=C(C(N)=O)C(=O)[C@@]2(O)C(O)=C3C(=O)c4c(O)cccc4[C@@](C)(O)[C@H]3C[C@@H]12 [TET, Tetracycline] | R

Test system: A. baumannii clinical isolate LAC 09
Experiment: Antibiotic susceptibility profile
Assay type: cell-based, Acinetobacter baumannii
Parameters: key: Resistance; Intermediate; Susceptible
Text: as §1, §2

SMILES | Antibiotic susceptibility
CN(C)[C@@H]1C(O)=C(C(N)=O)C(=O)[C@@]2(O)C(O)=C3C(=O)c4c(O)cccc4[C@@](C)(O)[C@H]3C[C@@H]12 [TET, Tetracycline] | R

Test system: A. baumannii clinical isolate LAC 10
Experiment: Antibiotic susceptibility profile
Assay type: cell-based, Acinetobacter baumannii
Parameters: key: Resistance; Intermediate; Susceptible
Text: as §1, §2

SMILES | Antibiotic susceptibility
CN(C)[C@@H]1C(O)=C(C(N)=O)C(=O)[C@@]2(O)C(O)=C3C(=O)c4c(O)cccc4[C@@](C)(O)[C@H]3C[C@@H]12 [TET, Tetracycline] | R

Test system: A. baumannii clinical isolate LAC 11
Experiment: Antibiotic susceptibility profile
Assay type: cell-based, Acinetobacter baumannii
Parameters: key: Resistance; Intermediate; Susceptible
Text: as §1, §2

SMILES | Antibiotic susceptibility
CN(C)[C@@H]1C(O)=C(C(N)=O)C(=O)[C@@]2(O)C(O)=C3C(=O)c4c(O)cccc4[C@@](C)(O)[C@H]3C[C@@H]12 [TET, Tetracycline] | R

Test system: A. baumannii clinical isolate LAC 12
Experiment: Antibiotic susceptibility profile
Assay type: cell-based, Acinetobacter baumannii
Parameters: key: Resistance; Intermediate; Susceptible
Text: as §1, §2

SMILES | Antibiotic susceptibility
CN(C)[C@@H]1C(O)=C(C(N)=O)C(=O)[C@@]2(O)C(O)=C3C(=O)c4c(O)cccc4[C@@](C)(O)[C@H]3C[C@@H]12 [TET, Tetracycline] | R

Test system: A. baumannii clinical isolate LAC 13
Experiment: Antibiotic susceptibility profile
Assay type: cell-based, Acinetobacter baumannii
Parameters: key: Resistance; Intermediate; Susceptible
Text: as §1, §2

SMILES | Antibiotic susceptibility
CN(C)[C@@H]1C(O)=C(C(N)=O)C(=O)[C@@]2(O)C(O)=C3C(=O)c4c(O)cccc4[C@@](C)(O)[C@H]3C[C@@H]12 [TET, Tetracycline] | R

Test system: A. baumannii clinical isolate LAC 14
Experiment: Antibiotic susceptibility profile
Assay type: cell-based, Acinetobacter baumannii
Parameters: key: Resistance; Intermediate; Susceptible
Text: as §1, §2

SMILES | Antibiotic susceptibility
CN(C)[C@@H]1C(O)=C(C(N)=O)C(=O)[C@@]2(O)C(O)=C3C(=O)c4c(O)cccc4[C@@](C)(O)[C@H]3C[C@@H]12 [TET, Tetracycline] | R

Test system: A. baumannii clinical isolate LAC 15
Experiment: Antibiotic susceptibility profile
Assay type: cell-based, Acinetobacter baumannii
Parameters: key: Resistance; Intermediate; Susceptible
Text: as §1, §2

SMILES | Antibiotic susceptibility
CN(C)[C@@H]1C(O)=C(C(N)=O)C(=O)[C@@]2(O)C(O)=C3C(=O)c4c(O)cccc4[C@@](C)(O)[C@H]3C[C@@H]12 [TET, Tetracycline] | R

Test system: A. baumannii clinical isolate LAC 16
Experiment: Antibiotic susceptibility profile
Assay type: cell-based, Acinetobacter baumannii
Parameters: key: Resistance; Intermediate; Susceptible
Text: as §1, §2

SMILES | Antibiotic susceptibility
CN(C)[C@@H]1C(O)=C(C(N)=O)C(=O)[C@@]2(O)C(O)=C3C(=O)c4c(O)cccc4[C@@](C)(O)[C@H]3C[C@@H]12 [TET, Tetracycline] | I
